For assay [1], the system named is human prostate adenocarcinoma PC3 cells. Briefly: Growth inhibition test (MTS). Type of assay: cell-based. The following applies: PC-3; 72 hours. The protocol:
(§1) Two thousand cells of human prostate adenocarcinoma PC3 were inoculated into each well of a 96-well microplate (manufactured by Corning Corp.), and using F12K (Ham's F12:RPMI 8226 1:1) medium (culture medium) containing 10% fetal calf serum (FCS). The same day, a dimethyl sulfoxide (DMSO) solution of each test compound prepared in a concentration of 10 mmol/L was further diluted with DMSO to the desired concentrations (0.1, 0.5, 1, 2.5, 5 and 10 micromol/L), and the diluted solution was added to each well. The individual wells were further cultured in 5% carbon dioxide at 37° C. for 72 hours. After completion of the culture, 10 μl MTS (3-(4,5-Dimethyl-2-thiazolyl)-5-(carboxymethoxyphenyl)-2-(4-sulfophenyl)-2H-tetrazolium, inner salt assay (CellTiter96® AQueous One Solution Cell Proliferation Assay, Promega) was added to each well, and culturing was performed in 5% carbon dioxide at 37° C. for 2 hours. Using a microplate spectrophotometer (Synergy 2 multi-mode microplate reader (BioTek)), the absorbance of each well was measured at 490 nm. The value for cells not incorporated with a test compound was designated as 100%. By comparing these values with the absorbance difference obtained at the well in which each test compound was added, the cell viability (% viability) after treatment with the test compound was calculated.

The test system of assay [2] is human colorectal adenocarcinoma SW480 cells. Put plainly: Growth inhibition test (MTS). Type of assay: cell-based. As to conditions: 72 hours. The protocol:
as §1, with “colorectal” for “prostate”, “SW480” for “PC3”, “DMEM/Ham's F121:1” for “F12K (Ham's F12:RPMI 8226 1:1)”, “5%” for “10%”

Assay [3] relates to human acute myeloid leukemia MOLM-13 cells. Put plainly: Growth inhibition test (MTS). As to conditions: MOLM13, 72 hours, read-out: Cytotoxicity in MTS assay (ED50). The class given is cell-based. On the procedure:
as §1, with “Ten” for “Two”, “acute myeloid leukemia MOLM-13” for “human prostate adenocarcinoma PC3”, “Corp.)” for “Corp.), and”, “RPMI” for “F12K (Ham's F12:RPMI”, “8226” for “8226 1:1)”
On the technique in general: Formazan colour is commonly taken as a measure of viable cells.

Assay [4] concerns human acute lymphocytic leukemia E6.1 Jurkat cells. Briefly: Growth inhibition test (MTS). As to conditions: 72 hours, read-out: Cytotoxicity in MTS assay (ED50). The class given is cell-based. On the procedure:
as §1, with “Twenty” for “Two”, “acute lumphocytic leukemia E6.1 Jurkat” for “prostate adenocarcinoma PC3”, “Corp.)” for “Corp.), and”, “[…]” for “F12K (Ham's F12:RPMI”, “[…]” for “8226 1:1)”

The target of assay [5] is PIM1 (Homo sapiens, UniProt P11309). Briefly: Radiometric kinase assay (HotSpot). As to conditions: for Selectivity for Pim-1 over CK2α: ratio of IC50 values.
Protocol: (§2) Kinase assays were performed at Reaction Biology Corporation (www.reactionbiology.com, Malvern Pa.) using the “HotSpot” assay platform. This assay platform is based on a radiometric filtration binding assay and is considered as the “gold standard” to which non-radiometric methods are compared. In this assay format, the kinase reaction is performed in the presence of 32 P-γ-ATP or 33 P-γ-ATP, followed by binding of the final radioisotope labeled peptide product to filters after which unreacted phosphate is washed away and the levels of phosphorylated peptide are measured.
For assay [6], the target named is PIM2 (Homo sapiens, UniProt Q9P1W9). Briefly: Radiometric kinase assay (HotSpot). The following applies: for Selectivity for Pim-2 over CK2α: ratio of IC50 values.
Protocol: as §2
For assay [7], the target named is CLK1 (Homo sapiens, UniProt P49759). Briefly: Radiometric kinase assay (HotSpot).
Protocol: as §2
The mark [8] stands for this setting: read-out: Inhibitory activity (IC50 in nM) in radiometric cell free assay, Pim-1, ATP 1 μM, peptide 5 μM.
[9] abbreviates: read-out: Inhibitory activity (IC50 in nM) in radiometric cell free assay, Pim-2, ATP 1 μM, peptide 5 μM.

Read-outs that look alike come from different tables or passages of the source.

The results in this text go back to patent US20110230481A2, “DERIVATIVES OF TETRABROMOBENZIMIDAZOLE, A PROCESS FOR THE PREPARATION THEREOF, A PHARMACEUTICAL COMPOSITION COMPRISING THE SAME, A METHOD OF USING THE SAME, A METHOD FOR MODULATING OR REGULATING SERINE/THREONINE KINASES, AND SERINE/THREONINE KINASES MODULATING AGENT” (SELVITA S.A., priority 2009, published 2011).

Sequence of CLK1 (P49759 whole entry): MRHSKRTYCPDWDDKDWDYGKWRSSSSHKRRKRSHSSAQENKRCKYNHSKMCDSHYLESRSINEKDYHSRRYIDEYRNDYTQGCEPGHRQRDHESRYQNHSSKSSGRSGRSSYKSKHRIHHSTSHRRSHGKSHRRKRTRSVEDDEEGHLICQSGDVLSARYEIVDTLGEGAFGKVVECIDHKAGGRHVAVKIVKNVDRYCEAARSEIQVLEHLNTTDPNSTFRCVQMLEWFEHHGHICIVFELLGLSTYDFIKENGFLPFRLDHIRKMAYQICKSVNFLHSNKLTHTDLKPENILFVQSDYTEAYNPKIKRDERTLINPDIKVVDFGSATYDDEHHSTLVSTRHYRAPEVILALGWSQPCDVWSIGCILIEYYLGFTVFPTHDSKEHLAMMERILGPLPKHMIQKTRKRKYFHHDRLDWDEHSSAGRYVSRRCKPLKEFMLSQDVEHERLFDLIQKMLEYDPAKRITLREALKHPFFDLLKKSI
Sequence of PIM2 (Q9P1W9 whole entry): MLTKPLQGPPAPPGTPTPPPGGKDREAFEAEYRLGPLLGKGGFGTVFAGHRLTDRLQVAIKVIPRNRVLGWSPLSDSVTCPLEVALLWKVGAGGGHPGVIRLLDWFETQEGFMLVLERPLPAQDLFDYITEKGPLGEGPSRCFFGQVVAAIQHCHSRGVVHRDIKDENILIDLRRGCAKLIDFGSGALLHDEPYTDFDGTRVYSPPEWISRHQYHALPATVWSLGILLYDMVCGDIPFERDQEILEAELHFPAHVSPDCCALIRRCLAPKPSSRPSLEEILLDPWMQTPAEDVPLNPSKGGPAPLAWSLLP
Sequence of PIM1 (P11309 whole entry): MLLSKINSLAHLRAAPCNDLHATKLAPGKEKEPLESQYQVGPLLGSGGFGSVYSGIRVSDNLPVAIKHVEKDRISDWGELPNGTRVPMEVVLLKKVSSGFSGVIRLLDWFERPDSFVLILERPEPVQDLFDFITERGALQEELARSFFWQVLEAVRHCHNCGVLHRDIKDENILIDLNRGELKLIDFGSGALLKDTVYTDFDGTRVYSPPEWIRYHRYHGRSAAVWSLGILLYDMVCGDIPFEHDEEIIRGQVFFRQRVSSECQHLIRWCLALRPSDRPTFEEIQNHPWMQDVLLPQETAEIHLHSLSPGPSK

For `Brc1c(Br)c(Br)c2[nH]nnc2c1Br` [TBB, reference compound], the “Cytotoxicity in MTS assay (ED50)” value in assay [1] and in assay [2] was more than 10 µM throughout. Further, the IC50 in assay [3] is more than 10000 nM; in assay [4] it was more than 10000 nM; in assay [5] (setting [8]), 1840 nM; in assay [6] (setting [9]), more than 20000 nM.

Regarding `Brc1c(Br)c(Br)c2[nH]c(NCCN3CCCC3)nc2c1Br` [Compound 14, 4,5,6,7-tetrabromo-N-(2-(pyrrolidin-1-yl)ethyl)-1H-benzo[d]imidazol-2-amine], the “Cytotoxicity in MTS assay (ED50)” value in assay [1] turned out to be 5.47 µM. Further, the IC50 in assay [3] (Homo sapiens, MOLM-13) turned out to be 1450 nM; in assay [4] (Homo sapiens), 2650 nM; in assay [5], 43.8 nM; in assay [6], 618 nM. Moreover, in assay [5], the “Selectivity for Pim-1 over CK2α” value is reported as 19.0. Also, the “Selectivity for Pim-2 over CK2α” value in assay [6] is recorded as 1.3.

As to `CN(C)c1nc2c(Br)c(Br)c(Br)c(Br)c2[nH]1` [DMAT, reference compound], the “Cytotoxicity in MTS assay (ED50)” value in assay [1] is more than 10 µM. Besides, the IC50 in assay [4] was found to be 8180 nM; in assay [5] (setting [8]), 64.6 nM; in assay [6] (setting [9]), 2460 nM; in assay [7] (read-out: Inhibitory activity (IC50 in nM) in radiometric cell free assay, CLK1, ATP 1 μM, Myelin Basic Protein 10 μM) it was 211 nM.

As to `CN1CCN(c2nc3c(Br)c(Br)c(Br)c(Br)c3[nH]2)CC1` [Compound 21, 4,5,6,7-tetrabromo-2-(4-methylpiperazin-1-yl)-1H-benzo[d]imidazole], in assay [1], the “Cytotoxicity in MTS assay (ED50)” value was more than 10 µM. Besides, the IC50 in assay [3] (Homo sapiens, MOLM-13) came to 1610 nM; in assay [4] (Homo sapiens), 2630 nM; in assay [5] it was 66.1 nM; in assay [6], 1690 nM. Besides, the “Selectivity for Pim-1 over CK2α” value in assay [5] is 27.6. The “Selectivity for Pim-2 over CK2α” value in assay [6] amounted to 1.1.

For `NCCCNc1nc2c(Br)c(Br)c(Br)c(Br)c2[nH]1` [Compound 11, N-(3-aminopropyl)-4,5,6,7-tetrabromo-1H-benzo[d]imidazol-2-amine], the “Cytotoxicity in MTS assay (ED50)” value stood at 7.32 µM in assay [1] and 3.46 µM in assay [2]. The IC50 in assay [3] (Homo sapiens, MOLM-13) came to 1370 nM; in assay [4] (Homo sapiens) it was 1750 nM; in assay [5], 4.8 nM; in assay [6] it was 98.2 nM; in assay [7], 177 nM. The “Selectivity for Pim-1 over CK2α” value in assay [5] was found to be 211.7. Besides, in assay [6], the “Selectivity for Pim-2 over CK2α” value is 10.3.

For the compound `CN(C)c1nc2c(Br)c(Br)c(Br)c(Br)c2n1CC(=O)O` [Compound K66, reference compound], the “Cytotoxicity in MTS assay (ED50)” value in assay [1] and in assay [2] was more than 10 µM in each case. The IC50 in assay [3] was more than 10000 nM; in assay [4] it was more than 10000 nM; in assay [5] (setting [8]) it was 194 nM; in assay [6] (setting [9]), 954 nM. For the same compound, in assay [5], the “Selectivity for Pim-1 over CK2α” value amounted to 1.1. Besides, in assay [6], the “Selectivity for Pim-2 over CK2α” value turned out to be 0.2.

`Brc1c(Br)c(Br)c2[nH]cnc2c1Br` [TBI, reference compound]: the entries for the “Cytotoxicity in MTS assay (ED50)” value in assay [1] and in assay [2] were more than 10 µM and 7.21 µM, respectively. Also, the IC50 is 9720 nM in assay [3], more than 10000 nM in assay [4], 1670 nM in assay [5] (setting [8]) and more than 20000 nM in assay [6] (setting [9]).

For the compound `Brc1c(Br)c(Br)c2[nH]c(N3CCNCC3)nc2c1Br` [Compound 20, 4,5,6,7-tetrabromo-2-(piperazin-1-yl)-1H-benzo[d]imidazole], the “Cytotoxicity in MTS assay (ED50)” value in assay [1] amounted to 6.61 µM; in assay [2], 4.91 µM. In addition, the IC50 amounted to 1590 nM in assay [3] (Homo sapiens, MOLM-13); 2190 nM in assay [4] (Homo sapiens); 76.9 nM in assay [5]; 326 nM in assay [6]. The “Selectivity for Pim-1 over CK2α” value in assay [5] came out at 1.7. Also, the “Selectivity for Pim-2 over CK2α” value in assay [6] amounted to 0.4.

For the compound `Brc1c(Br)c(Br)c2c(Br)n[nH]c2c1Br` [Compound K64, reference compound], the entries for the “Cytotoxicity in MTS assay (ED50)” value in assay [1] and in assay [2] were more than 10 µM and 9.13 µM, respectively. The IC50 in assay [3] was more than 10000 nM; in assay [4] it was more than 10000 nM; in assay [5] (setting [8]), 308 nM; in assay [6] (setting [9]) it was 871 nM. Also, in assay [5], the “Selectivity for Pim-1 over CK2α” value was 2.1. Further, the “Selectivity for Pim-2 over CK2α” value in assay [6] is reported as 0.7.

For the compound `Brc1c(Br)c(Br)c2[nH]c(NCCN3CCCCC3)nc2c1Br` [Compound 13, 4,5,6,7-tetrabromo-N-(2-(piperidin-1-yl)ethyl)-1H-benzo[d]imidazol-2-amine], the “Cytotoxicity in MTS assay (ED50)” value in assay [1] amounted to 5.19 µM. Also, the IC50 in assay [3] (Homo sapiens, MOLM-13) is 2180 nM; in assay [4] (Homo sapiens), 1340 nM; in assay [5], 23.1 nM; in assay [6], 897 nM; in assay [7], 594 nM. The “Selectivity for Pim-1 over CK2α” value in assay [5] is 98.2. Moreover, in assay [6], the “Selectivity for Pim-2 over CK2α” value is on record as 2.5.

For `Brc1c(Br)c(Br)c2[nH]c(NCCN3CCOCC3)nc2c1Br` [Compound 16, 4,5,6,7-tetrabromo-N-(2-morpholinoethyl)-1H-benzo[d]imidazol-2-amine], in assay [1], the “Cytotoxicity in MTS assay (ED50)” value was more than 10 µM. The IC50 came out at 4660 nM in assay [3] (Homo sapiens, MOLM-13); 2460 nM in assay [4] (Homo sapiens); 67.7 nM in assay [5]; 3010 nM in assay [6]. Moreover, the “Selectivity for Pim-1 over CK2α” value in assay [5] came out at 101.6. Moreover, the “Selectivity for Pim-2 over CK2α” value in assay [6] turned out to be 2.3.
